# According to patent publication US20030199692A1, “Propanoic acid derivatives that inhibit the binding of integrins to their receptors” (priority 1999, published 2003):
# Target: T1, α4β1 integrin (Homo sapiens, UniProt P05556+P13612)
# T1 construct: endogenous in cells; host or cells: Ramos cells
# Experiment: Inhibition of adhesion of calcein AM-labeled Ramos cells to CS1 (fibronectin) peptide-conjugated ovalbumin
# Type: cell-based
# Conditions: Ramos; Table 2; compound at a concentration of 100 μM; read-out: % A (percent inhibition of cell adhesion)
# Description: The ability of compounds of the present invention to inhibit binding is determined by a procedure in which a 26-amino acid peptide containing the CS1 sequence of fibronectin with an N-terminal Cys ([…]) was coupled to maleimide activated ovalbumin. Bovine serum albumin (BSA) and CS1 conjugated ovalbumin were coated onto 96-well polystyrene plates at 0.5 mg/ml in TBS (50 mM Tris, pH 7.5; 150 mM NaCl) at 4° C. for 16 hours. The plates were washed three times with TBS and blocked with TBS containing 3% BSA at room temperature for 4 hours. Blocked plates were washed three times in binding buffer (TBS; 1 mM MgCl2; 1 mM CaCl2; 1 mM MnCl2) prior to assay. Ramos cells fluorescently labeled with calcein AM were resuspended in binding buffer (10^7 cells/ml) and diluted 1:2 with same buffer with or without compound. The cells were added immediately to the wells (2.5×10^5 cells/well) and incubated for 30 minutes at 37° C. Following three washes with binding buffer, adherent cells were lysed and quantitated using a fluorometer. IC50 is defined as the dose required to give 50% inhibition. MS in Table 3 stands for Mass Spec. nd stands for not determined in the Tables. A stands for inhibition in Table 2, and the percent inhibition indicates the inhibition of cell adhesion when compound is included in the assay at a concentration of 100 μM. The lower the IC50 value and the greater the percentage of inhibition, the more efficient the compound is at prevention of cell adhesion.
# T1 sequence (P13612 34-1032): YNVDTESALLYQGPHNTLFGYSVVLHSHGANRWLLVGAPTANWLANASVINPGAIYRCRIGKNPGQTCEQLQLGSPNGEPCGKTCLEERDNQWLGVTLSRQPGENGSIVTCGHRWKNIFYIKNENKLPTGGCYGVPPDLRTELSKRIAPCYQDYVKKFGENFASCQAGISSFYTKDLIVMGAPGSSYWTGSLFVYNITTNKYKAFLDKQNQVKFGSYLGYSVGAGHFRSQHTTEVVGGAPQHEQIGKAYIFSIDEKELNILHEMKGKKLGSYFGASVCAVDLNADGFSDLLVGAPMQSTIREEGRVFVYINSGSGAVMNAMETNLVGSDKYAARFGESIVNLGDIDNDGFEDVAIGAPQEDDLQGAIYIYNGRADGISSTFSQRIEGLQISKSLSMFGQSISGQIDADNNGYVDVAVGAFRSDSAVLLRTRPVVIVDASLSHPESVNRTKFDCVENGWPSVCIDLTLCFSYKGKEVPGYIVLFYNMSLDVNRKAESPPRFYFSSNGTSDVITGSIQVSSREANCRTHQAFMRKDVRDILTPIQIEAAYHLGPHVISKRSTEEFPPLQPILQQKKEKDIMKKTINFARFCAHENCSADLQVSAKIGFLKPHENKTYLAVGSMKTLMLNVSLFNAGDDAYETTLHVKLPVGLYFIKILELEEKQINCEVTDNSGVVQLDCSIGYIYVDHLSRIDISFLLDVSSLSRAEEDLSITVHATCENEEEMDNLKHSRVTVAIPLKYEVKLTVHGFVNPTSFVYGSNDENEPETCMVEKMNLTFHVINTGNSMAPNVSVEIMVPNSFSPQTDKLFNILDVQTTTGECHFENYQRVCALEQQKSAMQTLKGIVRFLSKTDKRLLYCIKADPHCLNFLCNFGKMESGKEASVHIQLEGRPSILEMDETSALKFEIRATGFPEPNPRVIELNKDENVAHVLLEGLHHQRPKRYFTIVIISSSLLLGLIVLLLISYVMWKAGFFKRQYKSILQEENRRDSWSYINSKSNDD
# T1 sequence (P05556 21-798): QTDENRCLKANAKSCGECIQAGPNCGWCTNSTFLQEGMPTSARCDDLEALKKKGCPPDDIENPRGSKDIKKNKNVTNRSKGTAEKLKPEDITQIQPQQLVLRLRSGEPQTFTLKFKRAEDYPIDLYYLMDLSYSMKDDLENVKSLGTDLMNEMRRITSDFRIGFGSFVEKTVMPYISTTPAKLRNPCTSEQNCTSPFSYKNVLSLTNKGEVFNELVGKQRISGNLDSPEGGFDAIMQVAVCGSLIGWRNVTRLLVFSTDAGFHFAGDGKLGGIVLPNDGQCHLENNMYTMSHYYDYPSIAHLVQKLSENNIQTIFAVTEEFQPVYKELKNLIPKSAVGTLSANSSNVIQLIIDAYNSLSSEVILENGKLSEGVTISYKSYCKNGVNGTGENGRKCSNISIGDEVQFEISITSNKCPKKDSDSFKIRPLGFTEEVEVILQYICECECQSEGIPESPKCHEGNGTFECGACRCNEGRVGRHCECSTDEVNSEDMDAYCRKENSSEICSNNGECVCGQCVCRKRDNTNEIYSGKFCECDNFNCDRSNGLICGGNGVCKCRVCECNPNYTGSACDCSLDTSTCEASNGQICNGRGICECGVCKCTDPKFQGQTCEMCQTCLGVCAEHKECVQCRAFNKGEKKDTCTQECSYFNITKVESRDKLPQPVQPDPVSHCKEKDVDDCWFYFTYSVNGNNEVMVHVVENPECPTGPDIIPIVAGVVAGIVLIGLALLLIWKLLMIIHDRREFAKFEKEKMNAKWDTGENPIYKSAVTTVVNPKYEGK
row,Compound,inhibition at 100 µM
1,"CCCC[C@@H](C(=O)N[C@@H](CC(=O)O)c1ccc2c(c1)OCO2)N1CCN(Cc2cccs2)C1=O [(3S)-3-(1,3-benzodioxol-5-yl)-3-({(2S)-2-[2-oxo-3-(2-thienylmethyl)-1-imidazolidinyl]hexanoyl}amino)propanoic acid]",100%
2,"CCCC[C@@H](C(=O)N[C@@H](CC(=O)O)c1ccc2c(c1)OCO2)N1CCCN(Cc2cccs2)C1=O [(3S)-3-(1,3-benzodioxol-5-yl)-3-(((2S)-2-(2-oxo-3-(2-thienylmethyl)tetrahydro-1(2H)-pyrimidinyl)hexanoyl)amino)propanoic acid]",100%

# Same assay, conditions: Table 1; Ramos cell adhesion to CS1-conjugated ovalbumin, 30 minutes at 37° C.
row,Compound,IC50
1,"CCCCC(C(=O)N[C@@H](CC(=O)O)c1ccc2c(c1)CCO2)n1cc(C)cc(Cc2ccccc2)c1=O (mixture of isomers) [Compound 12, (3S)-3-((2R,S)-2-(3-benzyl-5-methyl-2-oxo-1(2H)-pyridinyl)hexanoylamino)-3-(2,3-dihydro-1-benzofuran-5-yl)propanoic acid]",0.04 µM

# Same assay, conditions: Table 2; Ramos cell adhesion to CS1-conjugated ovalbumin, 30 minutes at 37° C.
row,Compound,IC50
1,"CCCC[C@@H](C(=O)N[C@@H](CC(=O)O)c1ccc2c(c1)OCO2)N1CCN(Cc2cccs2)C1=O [(3S)-3-(1,3-benzodioxol-5-yl)-3-({(2S)-2-[2-oxo-3-(2-thienylmethyl)-1-imidazolidinyl]hexanoyl}amino)propanoic acid]",0.15 µM
2,"CCCC[C@@H](C(=O)N[C@@H](CC(=O)O)c1ccc2c(c1)OCO2)N1CCCN(Cc2cccs2)C1=O [(3S)-3-(1,3-benzodioxol-5-yl)-3-(((2S)-2-(2-oxo-3-(2-thienylmethyl)tetrahydro-1(2H)-pyrimidinyl)hexanoyl)amino)propanoic acid]",0.005 µM

# Same assay, conditions: Table 3; Ramos cell adhesion to CS1-conjugated ovalbumin, 30 minutes at 37° C.
row,Compound,IC50
1,"CCCCC(C(=O)N[C@@H](CC(=O)O)c1ccc2c(c1)OCO2)n1cccc(NCc2cccs2)c1=O (stereo partly drawn) [(3S)-3-(1,3-benzodioxol-5-yl)-3-({2-[2-oxo-3-[(2-thiophenylmethyl)amino]-1(2H)-pyridinyl]hexanoyl}amino)propanoic acid]",1.3 µM
2,"O=C(O)C[C@H](NC(=O)C1(n2cccc(Cc3ccccc3)c2=O)CCCCC1)c1ccc2c(c1)OCO2 [(3S)-3-(1,3-Benzodioxol-5-yl)-3-[({1-[2-oxo-3-(phenylmethyl)-1(2H)-pyridinyl]cyclohexyl}carbonyl)amino]propanoic acid]",50 µM
3,"CCCC[C@@H](C(=O)N[C@@H](CC(=O)O)c1ccc2c(c1)OCO2)n1c(=O)c2ccccc2n(Cc2ccccc2)c1=O [(3S)-3-(1,3-benzodioxol-5-yl)-3-({(2S)-2-[2,4-dioxo-1-(phenylmethyl)-1,4-dihydro-3(2H)-quinazolinyl]hexanoyl}amino)propanoic acid]",0.1 µM
4,"CCCCC(C(=O)N[C@@H](CC(=O)O)c1ccc2c(c1)OCO2)n1cc(Cc2ccccc2)ccc1=O (stereo partly drawn) [(3S)-3-(1,3-Benzodioxol-5-yl)-3-({2-[2-oxo-5-(phenylmethyl)-1(2H)-pyridinyl]hexanoyl}amino)propanoic acid]",0.04 µM

# Same assay, conditions: Table 4; Ramos cell adhesion to CS1-conjugated ovalbumin, 30 minutes at 37° C.
row,Compound,IC50
1,"CCCCC(C(=O)N[C@@H](CC(=O)O)c1cccc(OC(C)C)c1)n1cc(C)cc(Cc2c(Cl)cccc2Cl)c1=O (stereo partly drawn) [(3S)-3-({2-[3-(2,6-dichlorobenzyl)-5-methyl-2-oxopyridin-1(2H)-yl]hexanoyl}amino)-3-(3-isopropoxyphenyl)propanoic acid]",0.275 µM
2,CCCCC(C(=O)N[C@@H](CC(=O)O)c1ccc(C(C)C)cc1)n1cc(C)cc(Cc2ccccc2)c1=O (stereo partly drawn) [(3S)-3-[4-(1-methylethyl)phenyl]-3-({2-[5-methyl-2-oxo-3-(phenylmethyl)-1(2H)-pyridinyl]hexanoyl}amino)propanoic acid],0.16 µM
3,CCCCC(C(=O)N[C@@H](CC(=O)O)c1ccc2cc(OC)ccc2c1)n1cc(C)cc(Cc2ccccc2)c1=O (stereo partly drawn) [(3S)-3-{[2-(3-benzyl-5-methyl-2-oxopyridin-1(2H)-yl)hexanoyl]amino}-3-(6-methoxy-2-naphthyl)propanoic acid],0.04 µM
4,CCCCC(C(=O)N[C@@H](CC(=O)O)c1cccc(F)c1)n1cc(C)cc(Cc2ccccc2)c1=O (stereo partly drawn) [(3S)-3-(3-fluorophenyl)-3-({2-[5-methyl-2-oxo-3-(phenylmethyl)-1(2H)-pyridinyl]hexanoyl}amino)propanoic acid],0.013 µM
5,"CCCC[C@H](C(=O)N[C@@H](CC(=O)O)c1ccc2c(c1)OCO2)n1cc(C)c(O)c(Cc2ccccc2)c1=O [(3S)-3-(1,3-benzodioxol-5-yl)-3-{[(2R)-2-(3-benzyl-4-hydroxy-5-methyl-2-oxopyridin-1(2H)-yl)hexanoyl]amino}propanoic acid]",2 µM
6,CCCCC(C(=O)N[C@@H](CC(=O)O)c1ccc(C)cc1)n1cc(C)cc(Cc2ccccc2Cl)c1=O (stereo partly drawn) [(3S)-3-({2-[3-(2-chlorobenzyl)-5-methyl-2-oxopyridin-1(2H)-yl]hexanoyl}amino)-3-(4-methylphenyl)propanoic acid],0.015 µM
